Results from patent publication US10947271B2, “Antibacterial agents” (THE UNIVERSITY OF QUEENSLAND, priority 2014, dated 2021).

What was measured:
MRSA (Strain ATCC 43300) = experiment: Murine thigh infection model (MRSA); assay type: in vivo, Staphylococcus aureus; details: neutropenic CD1 mice
Method: Summary: Adult (8 week old) female CD1 mice were made neutropenic by two injections of cyclophosphamide 4 days and 1 day prior to infection. An inoculum of 10^5 cfu MRSA (Strain ATCC 43300) was injected intramuscularly into both left and right thighs of all mice. […] After an additional two hours, a 50 μL sample of blood was obtained from the tail bleed to analyse for presence of antibiotic compound. […] Thighs were then removed, weighed and homogenised in a fixed volume of saline. The homogenate solution was filtered, diluted and seeded onto agar plates, which were incubated overnight at 37° C. Colony counts were used to establish the cfu in the thigh homogenates, the cfu/thigh, and the cfu/g of thigh.
Compound preparation: Cyclophosphamide monohydrate (Sigma) was dissolved in sterile saline to a concentration of 30 mg/mL. Likewise, vancomycin (Sigma) and MCC compounds were also dissolved in sterile saline to a final concentration of 60 mg/mL and 18.5 mg/mL respectively. All compounds were prepared in low binding Eppendorf tubes and kept at −20° C. until used.
In vivo experimental assay: Eight week old female outbred CD1 mice (UQBR-AIBN) were rendered neutropenic by injecting two doses of cyclophosphamide intraperitoneally 4 days (150 mg/kg) and 1 day (100 mg/kg) prior to experimental infection. The infection model using MRSA was established by intramuscular injection of 50 μL of early-log-phase bacterial MRSA suspension (around 2×10^6 cfu/mL) in saline into both thigh muscles. […] Untreated animals received equivalent volume of saline (Baxter). The mice were monitored for signs of normal behaviour (i.e. grooming, eating, drinking, sleeping, and alertness) during and following dosing. Two hours after saline/antibiotic treatment, 0.05 mL of blood was collected by tail incision. 24 hours after MRSA infection, mice were euthanized and blood collected from the heart by cardiac puncture (saline group) or by tail incision (Vancomycin and MCC compound treated groups) as outlined in FIG. 1. For each mouse, both thighs were collected aseptically by cutting the leg at the hip and knee, placed in 10 mL of cold sterile saline and the individual weight of each thigh recorded.
Preparation of injectable MRSA solution: An MRSA subculture bacterial isolate (ATCC43300) was taken from the storage at −80° C. and freshly seeded on agar plates for overnight (O/N) growth. From the O/N culture preparation, a single colony was diluted into 10-12 mL of Mueller Hinton broth (MHB) and incubated O/N at 37° C. A log-phase subculture was obtained by adding 100 μL of O/N subculture in 10 mL MHB and incubated for a further 2-3 hours. Finally, the OD600 value of the bacterial suspension was determined and the colony forming units per millilitre (cfu/mL) extrapolated. A full dilution of the bacterial cell suspension in saline was achieved by washing (3220×g for 10 min) and the OD600 in saline determined. The suspension was then diluted out accordingly in order to achieve a 2×10^6 cfu/mL solution (10^5 cfu in 50 μL/thigh).
Thus, 10 μL of the injectable MRSA suspension was diluted down to 10-1000 fold, each dilution plated out onto agar plates and incubated at 37° C. for 24 hours.
Thigh homogenates and CFU determination: Thighs were homogenized at 20,000 rpm for 15 seconds using a Polytron MR2500E using a […] probe (all Kinematica).

[1] = test system: Streptococcus pneumoniae MDR ATCC 700677; experiment: MIC assay, S. pneumoniae MDR ATCC 700677; assay type: cell-based; details: 24 h incubation, visual reading
Summary of the method: (§1)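 Twofold broth microdilution in Mueller Hinton broth; compounds tested from 8 μg/ml to 0.003 μg/ml. Mid-log cultures were inoculated at 5×10e5 CFU/mL and incubated 24 h at 37° C. MIC was the lowest concentration with no visible growth.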

[2] = test system: Enterococcus faecium MDR Van A ATCC 51559; experiment: MIC assay, E. faecium MDR Van A ATCC 51559; assay type: cell-based; details: 24 h incubation, visual reading
Summary of the method: as §1

[3] = test system: Staphylococcus aureus MRSA ATCC 43300; experiment: MIC assay, S. aureus MRSA ATCC 43300; assay type: cell-based; details: 24 h incubation, visual reading
Summary of the method: as §1

[4] = single subcutaneous dose 10 mg/kg
[5] = single subcutaneous dose 50 mg/kg

Row | Compound | Average Reduction log Δcfu MRSA/thigh after 26 h (MRSA (Strain ATCC 43300); [4]) | Minimum Inhibitory Concentration (MIC) S. pneumoniae ATCC 700677 [1] | Minimum Inhibitory Concentration (MIC) E. faecium ATCC51559 [2] | Minimum Inhibitory Concentration (MIC) Staph. aureus ATCC43300 [3] | Average Reduction log Δcfu MRSA/thigh after 26 h (MRSA (Strain ATCC 43300); single subcutaneous dose 5 mg/kg) | Average Reduction log Δcfu MRSA/thigh after 26 h (MRSA (Strain ATCC 43300); single subcutaneous dose 25 mg/kg) | Average Reduction log Δcfu MRSA/thigh after 26 h (MRSA (Strain ATCC 43300); [5])
1 | CCCCCCCC(O)CC(=O)N[C@@H](CCCCN)C(=O)N[C@@H](CCCCN)C(=O)NCCCNC(=O)[C@H]1NC(=O)[C@H]2NC(=O)[C@H](NC(=O)[C@@H]3NC(=O)[C@H](CC(N)=O)NC(=O)[C@H](NC(=O)[C@@H](CC(C)C)NC)[C@H](O)c4ccc(c(Cl)c4)Oc4cc3cc(c4O[C@@H]3O[C@H](CO)[C@@H](O)[C@H](O)[C@H]3O[C@H]3C[C@](C)(N)[C@H](O)[C@H](C)O3)Oc3ccc(cc3Cl)[C@H]2O)c2ccc(O)c(c2)-c2c(O)cc(O)cc21 (stereo partly shown) [MCC_005483] | xxx (xxx = 4-6) | xxxx (xxxx = 0.01-<0.1) | x (x = >4) | xxxx (xxxx = 0.01-<0.1) |  |  | 
2 | CCCCCCCCCCC(=O)N[C@@H](CCCCN)C(=O)N[C@@H](CCCCN)C(=O)N[C@@H](CCCCNC(=O)[C@H]1NC(=O)[C@H]2NC(=O)[C@H](NC(=O)[C@@H]3NC(=O)[C@H](CC(N)=O)NC(=O)[C@H](NC(=O)[C@@H](CC(C)C)NC)[C@H](O)c4ccc(c(Cl)c4)Oc4cc3cc(c4O[C@@H]3O[C@H](CO)[C@@H](O)[C@H](O)[C@H]3O[C@H]3C[C@](C)(N)[C@H](O)[C@H](C)O3)Oc3ccc(cc3Cl)[C@H]2O)c2ccc(O)c(c2)-c2c(O)cc(O)cc21)C(=O)O [MCC_000174] | xxx (xxx = 4-6) | xxxx (xxxx = 0.01-<0.1) | x (x = >4) | xxxx (xxxx = 0.01-<0.1) | xxx (xxx = 4-6) | xxx (xxx = 4-6) | 
3 | CCCCCCCCCCCC(=O)N[C@@H](CCCCN)C(=O)N[C@@H](CCCCN)C(=O)N[C@@H](CCCCNC(=O)[C@H]1NC(=O)[C@H]2NC(=O)[C@H](NC(=O)[C@@H]3NC(=O)[C@H](CC(N)=O)NC(=O)[C@H](NC(=O)[C@@H](CC(C)C)NC)[C@H](O)c4ccc(c(Cl)c4)Oc4cc3cc(c4O[C@@H]3O[C@H](CO)[C@@H](O)[C@H](O)[C@H]3O[C@H]3C[C@](C)(N)[C@H](O)[C@H](C)O3)Oc3ccc(cc3Cl)[C@H]2O)c2ccc(O)c(c2)-c2c(O)cc(O)cc21)C(=O)O [MCC_000347] | xxxx (xxxx = >6) | xxxx (xxxx = 0.01-<0.1) | xx (xx = 1-4) | xxxxx (xxxxx = <0.01) |  |  | 
4 | CNC(CC(C)C)C(=O)NC1C(=O)NC(CC(N)=O)C(=O)NC2C(=O)NC3C(=O)NC(C(=O)NC(C(=O)NCCCNC(=O)C(CCCCN)NC(=O)C(CCCCN)NC(=O)c4ccc(Cl)cc4)c4cc(O)cc(O)c4-c4cc3ccc4O)C(O)c3ccc(c(Cl)c3)Oc3cc2cc(c3OC2OC(CO)C(O)C(O)C2OC2CC(C)(N)C(O)C(C)O2)Oc2ccc(cc2Cl)C1O (stereo not shown) [MCC_005362] | x (x = 0-2) | xxx (xxx = 0.1-<1) | xx (xx = 1-4) | xxx (xxx = 0.1-<1) |  |  | xxx (xxx = 4-6)
5 | CN[C@H](CC(C)C)C(=O)N[C@H]1C(=O)N[C@@H](CC(N)=O)C(=O)N[C@H]2C(=O)N[C@H]3C(=O)N[C@H](C(=O)N[C@H](C(=O)NCCCC[C@H](NC(=O)[C@H](CCCCN(C)C)NC(=O)c4ccc(Oc5ccccc5)cc4)C(=O)O)c4cc(O)cc(O)c4-c4cc3ccc4O)[C@H](O)c3ccc(c(Cl)c3)Oc3cc2cc(c3O[C@@H]2O[C@H](CO)[C@@H](O)[C@H](O)[C@H]2O[C@H]2C[C@](C)(N)[C@H](O)[C@H](C)O2)Oc2ccc(cc2Cl)[C@H]1O [MCC_007221] | x (x = 0-2) | xx (xx = 1-4) | x (x = >4) | xxx (xxx = 0.1-<1) |  |  | 
6 | CCCCCCCCC(=O)NC(CCCCN(C)C)C(=O)NCCCNC(=O)C1NC(=O)C2NC(=O)C(NC(=O)C3NC(=O)C(CC(N)=O)NC(=O)C(NC(=O)C(CC(C)C)NC)C(O)c4ccc(c(Cl)c4)Oc4cc3cc(c4OC3OC(CO)C(O)C(O)C3OC3CC(C)(N)C(O)C(C)O3)Oc3ccc(cc3Cl)C2O)c2ccc(O)c(c2)-c2c(O)cc(O)cc21 (stereo not shown) [MCC_007338] | xx (xx = 2-4) | xxx (xxx = 0.1-<1) | x (x = >4) | xxx (xxx = 0.1-<1) |  |  | 
7 | CCCCCCCCC(=O)N[C@@H](CCCCN)C(=O)N[C@@H](CCCCN)C(=O)NCCNC(=O)[C@H]1NC(=O)[C@H]2NC(=O)[C@H](NC(=O)[C@@H]3NC(=O)[C@H](CC(N)=O)NC(=O)[C@H](NC(=O)[C@@H](CC(C)C)NC)[C@H](O)c4ccc(c(Cl)c4)Oc4cc3cc(c4O[C@@H]3O[C@H](CO)[C@@H](O)[C@H](O)[C@H]3O[C@H]3C[C@](C)(N)[C@H](O)[C@H](C)O3)Oc3ccc(cc3Cl)[C@H]2O)c2ccc(O)c(c2)-c2c(O)cc(O)cc21 [MCC_005165] | xxx (xxx = 4-6) | xxxx (xxxx = 0.01-<0.1) | x (x = >4) | xxxx (xxxx = 0.01-<0.1) |  |  | 
8 | CCCCCCCCC(=O)N[C@@H](CCCCN)C(=O)N[C@@H](CCCCN)C(=O)N[C@@H](CCCCNC(=O)[C@H]1NC(=O)[C@H]2NC(=O)[C@H](NC(=O)[C@@H]3NC(=O)[C@H](CC(N)=O)NC(=O)[C@H](NC(=O)[C@@H](CC(C)C)NC)[C@H](O)c4ccc(c(Cl)c4)Oc4cc3cc(c4O[C@@H]3O[C@H](CO)[C@@H](O)[C@H](O)[C@H]3O[C@H]3C[C@](C)(N)[C@H](O)[C@H](C)O3)Oc3ccc(cc3Cl)[C@H]2O)c2ccc(O)c(c2)-c2c(O)cc(O)cc21)C(=O)O [MCC_005226] | x (x = 0-2) | xxx (xxx = 0.1-<1) | x (x = >4) | xxx (xxx = 0.1-<1) |  |  | 
9 | CCCCCCCCCC(=O)N[C@@H](CCCCN)C(=O)N[C@@H](CCCCN)C(=O)NCCCNC(=O)[C@H]1NC(=O)[C@H]2NC(=O)[C@H](NC(=O)[C@@H]3NC(=O)[C@H](CC(N)=O)NC(=O)[C@H](NC(=O)[C@@H](CC(C)C)NC)[C@H](O)c4ccc(c(Cl)c4)Oc4cc3cc(c4O[C@@H]3O[C@H](CO)[C@@H](O)[C@H](O)[C@H]3O[C@H]3C[C@](C)(N)[C@H](O)[C@H](C)O3)Oc3ccc(cc3Cl)[C@H]2O)c2ccc(O)c(c2)-c2c(O)cc(O)cc21 [MCC_005084] | xxx (xxx = 4-6) | xxxx (xxxx = 0.01-<0.1) | xx (xx = 1-4) | xxxx (xxxx = 0.01-<0.1) |  |  | 
10 | CNC(CC(C)C)C(=O)NC1C(=O)NC(CC(N)=O)C(=O)NC2C(=O)NC3C(=O)NC(C(=O)NC(C(=O)NCCCNC(=O)C(CCCCN)NC(=O)C(CCCCN)NC(=O)CCCOc4ccccc4)c4cc(O)cc(O)c4-c4cc3ccc4O)C(O)c3ccc(c(Cl)c3)Oc3cc2cc(c3OC2OC(CO)C(O)C(O)C2OC2CC(C)(N)C(O)C(C)O2)Oc2ccc(cc2Cl)C1O (stereo not shown) [MCC_005365] |  | xxx (xxx = 0.1-<1) | x (x = >4) | xxx (xxx = 0.1-<1) |  |  | xx (xx = 2-4)
